Where two headings read alike, the source gives them in different places.
System: primary rat mixed cortical cells
Experiment: In vitro myelination assay (MBP positive myelin strands, fold myelin pixels above background)
Format: cell-based
Settings: for fold induction at 1 µM / fold induction at 10 µM: Rattus norvegicus
How it was run: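 P1 rat mixed cortical cultures (neurons, OPCs, oligodendrocytes, astrocytes, microglia) grown 14 days at 37 °C with compound, half-medium refreshed with compound on days 6 and 10. Fixed cells stained for MBP; MBP-positive myelin strand pixels per well quantified by automated imaging, reported as fold over no-compound baseline at 1.0 and 10.0 μM.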

[1] = 1.0 μM compound, relative to baseline of no added compound, read-out: Fold myelin pixels above background
[2] = 10.0 μM compound, relative to baseline of no added compound, read-out: Fold myelin pixels above background
[3] = 1.0 μM compound, read-out: Fold myelin pixels above background relative to baseline of no added compound
[4] = 10.0 μM compound, read-out: Fold myelin pixels above background relative to baseline of no added compound
[5] = 1.0 μM compound, relative to baseline of no added compound, read-out: Fold myelin pixels above background, 1.0 μM
[6] = 10.0 μM compound, relative to baseline of no added compound, read-out: Fold myelin pixels above background, 10.0 μM

SMILES | fold induction at 1 µM [1] | fold induction at 10 µM [2] | fold induction at 1 µM [5] | fold induction at 10 µM [6] | also measured
Cc1cc(Nc2ncn(-c3cc(F)cc(F)c3)n2)cc([C@@H]2CCN(C3COC3)C[C@@H]2F)c1.Cc1cc(Nc2ncn(-c3cc(F)cc(F)c3)n2)cc([C@H]2CCN(C3COC3)C[C@H]2F)c1 [Compound 208, 1-(3,5-difluorophenyl)-N-[3-[(3S,4R)-3-fluoro-1-(oxetan-3-yl)-4-piperidyl]-5-methyl-phenyl]-1,2,4-triazol-3-amine; 1-(3,5-difluorophenyl)-N-[3-[(3R,4S)-3-fluoro-1-(oxetan-3-yl)-4-piperidyl]-5-methyl-phenyl]-1,2,4-triazol-3-amine] | – | – | – | – | Fold myelin pixels above background, 1.0 μM (1.0 μM compound, relative to baseline of no added compound): +++ (>100 to 1000x); Fold myelin pixels above background, 10.0 μM (10.0 μM compound, relative to baseline of no added compound): − (≤1)
Cc1cc(Nc2ncn(-c3cc(F)cc(F)c3)n2)cc([C@H]2CN(C3COC3)CCO2)c1 (single isomer, unassigned) [Compound 623] | 10 to 100 | 1 to 10 | – | – | –
COCC(=O)N1CC(C)(Nc2cc(C)cc(Nc3ncn(-c4cc(F)cc(F)c4)n3)c2)C1 [Compound 1075, 1-[3-[3-[[1-(3,5-difluorophenyl)-1,2,4-triazol-3-yl]amino]-5-methyl-anilino]-3-methyl-azetidin-1-yl]-2-methoxy-ethanone] | – | – | – | – | fold induction at 1 µM [3]: 1 to 10; fold induction at 10 µM [4]: ≤ 1
CC(=O)N1CCN(c2cc(Nc3ncn(-c4ccccc4)n3)cc(C(F)F)c2)CC1 [Compound 144, 1-[4-[3-(difluoromethyl)-5-[(1-phenyl-1,2,4-triazol-3-yl)amino]phenyl]piperazin-1-yl]ethanone] | – | – | 100 to 1000 | ≤ 1 | –
Cc1cc(Nc2ncn(-c3ccc(F)c(F)c3)n2)cc(OC2CCCOC2)c1 (centres unmarked) [Compound 638, 1-(3,4-difluorophenyl)-N-(3-methyl-5-tetrahydropyran-3-yloxy-phenyl)-1,2,4-triazol-3-amine] | 10 to 100 | 10 to 100 | – | – | –
C1=C(c2cc(Nc3ncn(-c4ccccc4)n3)cc(C3=CCOC3)c2)COC1 [Compound 234, N-[3,5-bis(2,5-dihydrofuran-3-yl)phenyl]-1-phenyl-1,2,4-triazol-3-amine] | – | – | 1 to 10 | 100 to 1000 | –
Cc1cc(Nc2ncn(-c3ccccc3)n2)cc(N2C[C@@H](C)N(C)[C@@H](C)C2)c1 [Compound 423, N-[3-methyl-5-[(3R,5S)-3,4,5-trimethylpiperazin-1-yl]phenyl]-1-phenyl-1,2,4-triazol-3-amine] | 100 to 1000 | ≤ 1 | – | – | –
COCC1CCN(c2cc(C(F)F)cc(Nc3ncn(-c4cccc(C(F)F)c4)n3)n2)CC1 [Compound 645, 4-(difluoromethyl)-N-[1-[3-(difluoromethyl)phenyl]-1,2,4-triazol-3-yl]-6-[4-(methoxymethyl)-1-piperidyl]pyridin-2-amine] | 1 to 10 | 10 to 100 | – | – | –
Cc1cc(Nc2ncn(-c3cc(F)cc(F)c3)n2)nc(N2CCN(C(=O)OC(C)(C)C)CC2)c1 [Compound 533, tert-butyl 4-[6-[[1-(3,5-difluorophenyl)-1,2,4-triazol-3-yl]amino]-4-methyl-2-pyridyl]piperazine-1-carboxylate] | 10 to 100 | 1 to 10 | – | – | –
Cc1cc(Nc2ncn(-c3ccc(F)c(Cl)c3)n2)cc(N2CCN(C3COC3)CC2)c1 [Compound 597, 1-(3-chloro-4-fluoro-phenyl)-N-[3-methyl-5-[4-(oxetan-3-yl)piperazin-1-yl]phenyl]-1,2,4-triazol-3-amine] | 1 to 10 | ≤ 1 | – | – | –
O=c1cc(-n2cnc(Nc3cc(C(F)F)cc(N4CCN(C5COC5)CC4)c3)n2)cc[nH]1 [Compound 163, 4-[3-[3-(difluoromethyl)-5-[4-(oxetan-3-yl)piperazin-1-yl]anilino]-1,2,4-triazol-1-yl]-1H-pyridin-2-one] | – | – | 100 to 1000 | ≤ 1 | –
Cc1cc(Nc2ncn(-c3ccccc3)n2)cc(C2CCCN(C3CC3)C2)c1 (centres unmarked) [Compound 340, N-[3-(1-cyclopropyl-3-piperidyl)-5-methyl-phenyl]-1-phenyl-1,2,4-triazol-3-amine] | – | – | 100 to 1000 | ≤ 1 | –
CC(=O)OCC(C)(COC(C)=O)N1CCN(c2cc(C)cc(Nc3ncn(-c4cc(F)cc(F)c4)n3)c2)CC1 [Compound 505, [3-acetoxy-2-[4-[3-[[1-(3,5-difluorophenyl)-1,2,4-triazol-3-yl]amino]-5-methyl-phenyl]piperazin-1-yl]-2-methyl-propyl] acetate] | 10 to 100 | ≤ 1 | – | – | –
Cc1cc(Nc2ncn(-c3cc(F)cc(F)c3)n2)cc(NC2CCN(CC3CCCO3)CC2)c1 (centres unmarked) [Compound 891, N3-[1-(3,5-difluorophenyl)-1,2,4-triazol-3-yl]-5-methyl-N1-[1-(tetrahydrofuran-2-ylmethyl)-4-piperidyl]benzene-1,3-diamine] | – | – | – | – | fold induction at 1 µM [3]: 1 to 10; fold induction at 10 µM [4]: ≤ 1
Fc1cc(Nc2ncn(-c3cncc(F)c3)n2)cc(N2CCOCC2)c1 [Compound 371, N-(3-fluoro-5-morpholino-phenyl)-1-(5-fluoro-3-pyridyl)-1,2,4-triazol-3-amine] | – | – | 1 to 10 | 100 to 1000 | –
Cc1cc(Nc2ncn(-c3cc(F)cc(F)c3)n2)cc(C2CCN(C3COC3)C2)c1 (centres unmarked) [Compound 25, 1-(3,5-difluorophenyl)-N-[3-methyl-5-[1-(oxetan-3-yl)pyrrolidin-3-yl]phenyl]-1,2,4-triazol-3-amine] | – | – | 1000 to 10000 | 1000 to 10000 | –
Fc1cc(F)cc(-n2cnc(Nc3cc(N4CCN(C5COC5)CC4)cc(F)n3)n2)c1 [Compound 847, N-[1-(3,5-difluorophenyl)-1,2,4-triazol-3-yl]-6-fluoro-4-[4-(oxetan-3-yl)piperazin-1-yl]pyridin-2-amine] | – | – | – | – | fold induction at 1 µM [3]: 1 to 10; fold induction at 10 µM [4]: 1 to 10
[2H]C1([2H])OC([2H])([2H])C([2H])([2H])N(c2cc(C)cc(Nc3ncn(-c4ccc(F)c(F)c4)n3)c2)C1([2H])[2H] [Compound 1066, 1-(3,4-difluorophenyl)-N-[3-methyl-5-(2,2,3,3,5,5,6,6-octadeuteriomorpholin-4-yl)phenyl]-1,2,4-triazol-3-amine] | – | – | – | – | fold induction at 1 µM [3]: 10 to 100; fold induction at 10 µM [4]: ≤ 1
Fc1cc(F)cc(-n2cnc(Nc3cc(Br)cc(N4CCOCC4)c3)n2)c1 [Compound 346, N-(3-bromo-5-morpholino-phenyl)-1-(3,5-difluorophenyl)-1,2,4-triazol-3-amine] | – | – | 1000 to 10000 | 1000 to 10000 | –
Cc1cc(Nc2ncn(-c3cc(F)cc(F)c3)n2)cc(N2CC[N+]([O-])(C3COC3)CC2)c1 [Compound 139, 1-(3,5-difluorophenyl)-N-[3-methyl-5-[4-(oxetan-3-yl)-4-oxido-piperazin-4-ium-1-yl]phenyl]-1,2,4-triazol-3-amine] | – | – | 100 to 1000 | 1 to 10 | –
Cc1cc(Nc2ncn(-c3cncc(Cl)c3)n2)cc(N2CCN(C3COC3)CC2)c1 [Compound 217, 1-(5-chloro-3-pyridyl)-N-[3-methyl-5-[4-(oxetan-3-yl)piperazin-1-yl]phenyl]-1,2,4-triazol-3-amine] | – | – | 10 to 100 | 10 to 100 | –
Fc1cc(F)cc(-n2cnc(Nc3cc(N4CCN(C5COC5)CC4)cc(C(F)(F)F)n3)n2)c1 [Compound 567, N-[1-(3,5-difluorophenyl)-1,2,4-triazol-3-yl]-4-[4-(oxetan-3-yl)piperazin-1-yl]-6-(trifluoromethyl)pyridin-2-amine] | ≤ 1 | ≤ 1 | – | – | –
Cc1cc(Nc2ncn(-c3ccccc3)n2)cc(N2CCN(C3CC3)C(=O)C2)c1 [Compound 214, l-cyclopropyl-4-[3-methyl-5-[(1-phenyl-1,2,4-triazol-3-yl)amino]phenyl]piperazin-2-one] | – | – | 10 to 100 | 1000 to 10000 | –
Cc1cc(NCCN2CCOCC2)cc(Nc2ncn(-c3cc(F)cc(F)c3)n2)c1 [Compound 858, N1-[1-(3,5-difluorophenyl)-1,2,4-triazol-3-yl]-5-methyl-N3-(2-morpholinoethyl)benzene-1,3-diamine] | – | – | – | – | fold induction at 1 µM [3]: 10 to 100; fold induction at 10 µM [4]: ≤ 1
Cc1cc(Nc2ncn(-c3ccccc3)n2)cc(N2CCN(C)CC2)n1 [Compound 156, 2-methyl-6-(4-methylpiperazin-1-yl)-N-(1-phenyl-1,2,4-triazol-3-yl)pyridin-4-amine] | – | – | 1000 to 10000 | ≤ 1 | –
Cc1cc(Nc2ncn(-c3cc(C)cc(F)c3)n2)cc(N2CCN(C3COC3)CC2)c1 [Compound 323, 1-(3-fluoro-5-methyl-phenyl)-N-[3-methyl-5-[4-(oxetan-3-yl)piperazin-1-yl]phenyl]-1,2,4-triazol-3-amine] | – | – | 1000 to 10000 | 100 to 1000 | –
Cc1cc(Nc2ncn(-c3cc(F)cc(F)c3)n2)cc(N2CCCC3(COC3)C2)c1 [Compound 541, 1-(3,5-difluorophenyl)-N-[3-methyl-5-(2-oxa-8-azaspiro[3.5]nonan-8-yl)phenyl]-1,2,4-triazol-3-amine] | ≤ 1 | 1 to 10 | – | – | –
Cc1cc(Nc2ncn(-c3cc(F)cc(F)c3)n2)cc(N2CCOC(C3CCCO3)C2)c1 (centres unmarked) [Compound 972, 1-(3,5-difluorophenyl)-N-[3-methyl-5-(2-tetrahydrofuran-2-ylmorpholin-4-yl)phenyl]-1,2,4-triazol-3-amine] | – | – | – | – | Fold myelin pixels above background relative to baseline of no added compound (1.0 μM compound): − (≤1); Fold myelin pixels above background relative to baseline of no added compound (10.0 μM compound): + (>1 to 10x)

— patent US10766869B2, “Triazoles for the treatment of demyelinating dieases” (Vertex Pharmaceuticals Incorporated, priority 2015, dated 2020)
